In article PMC9131871, “Impact of Micropolymorphism Outside the Peptide Binding Groove in the Clinically Relevant Allele HLA-C*14 on T Cell Responses in HIV-1 Infection” (Journal of Virology, 2022):

What was measured:
[1] = target: HLA-C*14:03 (Homo sapiens, UniProt P10321, A176E/A330V/A35S/A97T/C350S/D114A/D33S/L171W/L180R/L218V/M285V/M309V/M331V/P208H/Q277E/Q291P/R121W/R243W/R45H/S123F/S297R/S48A/T329A/T363A/V319A); experiment: HLA stabilization assay on RMA-S-C1403 cells; format: cell-based; conditions: 100 μM peptide, 26°C 1 h then 37°C 3 h, MAb DT-9 staining, flow cytometry, triplicate assays
Excerpt: (§1) We next sought to confirm the HLA-C*14:02/C*14:03 restriction of the HIV-1 peptides identified by LC-MS/MS. First, we tested their ability to bind to HLA-C*14:02 or HLA-C*14:03 using HLA stabilization assays. Of the 25 HIV-1 peptides, three Env peptides, Env SI8, Env AM11, and Env VM9, are located in variable regions V2 and V3. In addition, Pol AF10, Pol PF8, Pol VWL9, and Env YI9 are located in regions where high sequence variation is reported in the LANL database. Therefore, we excluded these peptides from further analysis. The other 18 peptides were synthesized and tested for binding to HLA-C*14:02/C*14:03 by analyzing their ability to stabilize surface HLA expression on TAP-defective RMA-S cell lines expressing HLA-C*14:02 (RMA-S-C1402) or HLA-C*14:03 (RMA-S-C1403). These RMA-S cell lines express equivalent levels of HLA-C*14:02 and HLA-C*14:03 on the cell surface at 26°C, and surface HLA expression declines to very low levels when the cells are warmed to 37°C in the absence of exogenously added stabilizing peptides (Fig. 2A). Peptide binding was determined by evaluating whether HLA-I expression was stabilized in the presence of 100 μM peptide.
(§2) FIG 2 HLA-C*14:02/14:03 binding of HIV-1 peptides eluted from NL4-3-infected .221-C1402 and .221-C1403 cells as assessed by HLA stabilization assay using RMA-S cell lines. (A) Histogram plots showing surface expression of HLA-C*14:02 or HLA-C*14:03 on RMA-S-C1402 or RMA-S-C1403 cells at 26°C and after cells cultured at 26°C had been warmed to 37°C for 3 h. MFI values of cells cultured at 26°C were 27.4 for HLA-C*14:02 and 28.1 for HLA-C*14:03. MFI values of cells cultured at 37°C for 3 h were 5.0 for HLA-C*14:02 and 6.54 for HLA-C*14:03. (B) Analysis of binding of 14 HIV-1 NL4.3 peptides identified by LC-MS/MS to HLA-C*14:02 (blue) or HLA-C*14:03 (red) as measured in HLA class I stabilization assays using RMA-S-C1402 or RMA-S-C1403 cells. (C) Analysis of binding of 9 additional variant peptides to HLA-C*14:02 (blue) or C*14:03 (red). For panels B and C, peptides were tested at a concentration of 100 μM. Results are plotted as percent surface HLA-I expression relative to that at 26°C, calculated as the ratio of the MFI of peptide-pulsed RMA-S-C1402 or RMA-S-C1403 cells to that of control (non-peptide-pulsed) cells kept at 26°C, multiplied by 100. Means and standard deviations (SDs) from triplicate assays are shown. Statistical analyses were performed by unpaired t test. The P values were corrected for multiple testing. *, P < 0.05 and q < 0.05; **, P < 0.01 and q < 0.03; ***, P < 0.001 and q < 0.005.
(§3) The relative affinity of peptide binding to HLA-C*14:02 and -C*14:03 was examined using RMA-S-C1402 and RMA-S-C1403 cells as previously described ([15]). Briefly, RMA-S cells were cultured at 26°C for 16 h, pulsed with peptides at 26°C for 1 h, and subsequently incubated at 37°C for 3 h. Staining of cell surface HLA-C molecules was performed with the HLA-C-reactive monoclonal antibody (MAb) DT-9 ([48]), a gift from Mary Carrington, NIH, and fluorescein isothiocyanate (FITC)-conjugated sheep anti-mouse IgG (Jackson ImmunoResearch). Staining data were acquired on a FACSCanto II instrument (BD Biosciences) and analyzed using FlowJo 10.7.1 software. Relative HLA expression was calculated as the ratio of the mean fluorescence intensity (MFI) of peptide-pulsed RMA-S-C1402 cells or RMA-S-C1403 cells to that of control (non-peptide-pulsed) cells kept at 26°C, multiplied by 100 to express the values for peptide-pulsed cells as a percentage of that for the control cells at 26°C.

[2] = target: HLA-C*14:02 (Homo sapiens, UniProt P10321, A176E/A330V/A35S/A97T/C350S/D114A/D33S/L171W/L180R/L218V/M285V/M309V/M331V/P208H/Q277E/Q291P/R121W/R243W/S123F/S297R/S48A/T329A/T363A/V319A); experiment: HLA stabilization assay on RMA-S-C1402 cells; format: cell-based; conditions: 100 μM peptide, 26°C 1 h then 37°C 3 h, MAb DT-9 staining, flow cytometry, triplicate assays
Excerpt: as §1, §2, §3

[3] = test system: T cells of a volunteer enrolled in an HIV vaccine trial; conditions: cited from earlier work
Excerpt: We identified 6 HLA-C*14:02/C*14:03 epitopes in the present study. Five of these peptides were detected by LC-MS/MS in HLA-I eluates from both HLA-C*14:02^+ and HLA-C*14:03^+ .221 cells infected with HIV-1, and T cells specific for all 6 epitopes effectively recognized both HIV-1-infected HLA-C*14:02^+ and HLA-C*14:03^+ .221 cells. […] Responses to two of these peptides, Gag LY9 and Nef YT9, were identified in a previous study that analyzed T cell responses ...

| Sequence | binding to HLA-C*14:03 (stabilization of surface HLA expression) [1] | binding to HLA-C*14:02 (stabilization of surface HLA expression) [2] | HLA-C*14-restricted HIV-1 epitope status [3] |
| --- | --- | --- | --- |
| FHHMAREK [NefFL8-4M8K, variant of Nef FL8, FHHMAREK, present in Japanese cohort viruses] | detectable binding to the HLA-C*14 molecules with the exception of NefFL8-4M8K | detectable binding to the HLA-C*14 molecules with the exception of NefFL8-4M8K | – |
| LYNTVATL [Gag LL8-5V7T] | – | – | identified as an HLA-C*14-restricted HIV-1 epitope |
